In patent US8343981B2, “Heterocyclyl-substituted dihydroquinazolines and their use as antiviral agents” (AiCuris GmbH & Co. KG, priority 2003, dated 2013):

Experiments:
[1] = Cytostatic effect on NHDF cells in the anti-HCMV cytopathogenicity test; assay type: cell-based; details: NHDF cells (human prepuce fibroblasts), 6 days incubation, visual assessment, concentration at which no visible cytostatic effects are evident
Procedure: (§1) Anti-HCMV (Anti-Human Cytomegalovirus) Cytopathogenicity Tests The test compounds are employed as 50 millimolar (mM) solutions in dimethyl sulphoxide (DMSO). Ganciclovir®, Foscarnet® and Cidofovir® are used as reference compounds. After addition of in each case 2 μl of the 50, 5, 0.5 and 0.05 mM DMSO stock solutions to 98 μl portions of cell culture medium in row […] for duplicate determinations, 1:2 dilutions are carried out with 50 μl portions of medium up to row 11 of the 96-well plate. The wells in rows 1 and 12 each contain 50 μl of medium. Then 150 μl portions of a suspension of 1×10^4 cells (human prepuce fibroblasts [NHDF]) are pipetted into each of the wells (row 1=cell control) and, in rows 2-12, a mixture of HCMV-infected and uninfected NHDF cells (M.O.I.=0.001-0.002), i.e. 1-2 infected cells per 1000 uninfected cells. Row 12 (without substance) serves as virus control. The final test concentrations are 250-0.0005 μM. The plates are incubated at 37° C./5% CO2 for 6 days, i.e. until all the cells are infected in the virus controls (100% cytopathogenic effect [CPE]). The wells are then fixed and stained by adding a mixture of formalin and Giemsa's dye (30 minutes), washed with double-distilled water and dried in a drying oven at 50° C. The plates are then assessed visually using an overhead microscope (Plaque Multiplier from Technomara). The following data can be acquired from the test plates: • CC50 (NHDF)=substance concentration in μM at which no visible cytostatic effects on the cells are evident by comparison with the untreated cell control; • EC50 (HCMV)=substance concentration in μM which inhibits the CPE (cytopathic effect) by 50% compared with the untreated virus control; • SI (selectivity index)=CC50 (NHDF)/EC50 (HCMV).

HCMV = experiment: Anti-HCMV cytopathogenicity test; assay type: cell-based, human cytomegalovirus; details: for SI HCMV (selectivity index): CC50 (NHDF)/EC50 (HCMV); for EC50: Human betaherpesvirus 5, 144 h, HCMV-infected NHDF cells, M.O.I. 0.001-0.002, 6 days, 50% inhibition of cytopathic effect
Procedure: as §1

Row | EC50 (HCMV) | Structure (SMILES) | CC50 at 6 days [1] | SI HCMV (selectivity index) (HCMV)
1 | 0.02 µM | COc1ccc(C(F)(F)F)cc1N1C(N2CCN3c4ccc(F)cc4CC3C2)=Nc2c(F)cccc2C1CC(=O)O (single isomer, unassigned) [Example 16, {8-Fluoro-2-(8-fluoro-3,4,10,10a-tetrahydropyrazino[1,2-a]indol-2(1H)-yl)-3-[2-methoxy-5-(trifluoromethyl)phenyl]-3,4-dihydroquinazolin-4-yl}acetic acid] | 21 µM | 1050
2 | 0.09 µM | COc1ccc(C(F)(F)F)cc1N1C(N2CCn3c(cc4c(C)cccc43)C2)=Nc2c(F)cccc2C1CC(=O)O (single isomer, unassigned) [Example 2] | 21 µM | 233
3 | 0.04 µM | COc1ccc(C(F)(F)F)cc1N1C(N2CCN3c4cccc(C)c4CC3C2)=Nc2c(F)cccc2C1CC(=O)O (stereo not drawn) [Example 9, [8-Fluoro-3-[2-methoxy-5-(trifluoromethyl)phenyl]-2-(9-methyl-3,4,10,10a-tetra-hydropyrazino[1,2-a]indol-2(1H)-yl)-3,4-dihydroquinazolin-4-yl]acetic acid] | 24 µM | 600
4 | 0.12 µM | COc1ccc(C(F)(F)F)cc1N1C(N2CCn3c(cc4c(F)cccc43)C2)=Nc2c(F)cccc2C1CC(=O)O (single isomer, unassigned) [Example 4] | 14 µM | 117
